# Patent publication US20210353701A1, “ULTRAVIOLET LIGHT-INDUCED INFLAMMATION SUPPRESSING AGENT COMPRISING ALTERNATIVE AUTOPHAGY INDUCING AGENT” (Shiseido Company, Ltd., priority 2018, published 2021)
# How the values were obtained:
# [1] = test system: Normal human epidermal keratinocytes (NHEK); assay: IL-1β production after ultraviolet irradiation in NHEK treated with autophagy inhibitor or inducing agent (ELISA); type: cell-based; settings: 3-MA 1 mM; UV 290 to 315 nm, 20 mJ/cm^2; culture supernatant after 48 hours
# Protocol: Normal human epidermal keratinocytes (NHEK) (Kurabo Industries, Ltd.) were seeded in a 6-well plate and cultured to subconfluence using epidermal keratinocyte growth medium (EpiLife-KG2; Gibco Co). The medium was then exchanged with medium containing 3-methyladenine (3-MA) (by R&D Co., final concentration: 1 mM), as a known autophagy inhibitor and medium containing rapamycin (by Enzo Life Science, final concentration: 0.5 μM) as a known autophagy inducing agent, and culturing was continued for 3 hours. After culturing, the medium was discarded, PBS was added and irradiation was carried out with ultraviolet rays (290 to 315 nm) at a radiation intensity of 20 mJ/cm^2. Following ultraviolet irradiation, culturing was continued under the medium conditions described above including 3-MA or rapamycin, and after 48 hours the culture supernatant of each was obtained. The IL-1β concentration of the obtained culture supernatant was evaluated using a Quantikine Human IL-1β ELISA Kit (R&D co.) (FIGS. 1A and B). Statistical significance testing was conducted using Student's or Welch's t test.
# [2] = test system: NHEK cells; assay: IL-1β production after ultraviolet irradiation in siRNA-treated NHEK cells (ELISA); type: cell-based, human; settings: siRNA 200 nM; UV 290 to 315 nm, 15 mJ/cm^2; culture supernatant after 48 hours
# Protocol: (§1) An Amaxa Human Keratinocyte Nucleofector Kit (Lonza) was used to transfect NHEK cells (8.0×10^5 cells) with siRNA to a final concentration of 200 nM. The knockdown efficiency was confirmed by the mRNA expression level of Atg5, Atg7 and Beclin1 using an RT-PCR method (FIGS. 2A, B and C). The RT-PCR primers used were primers by Sigma-Aldrich, and GAPDH (Sigma-Aldrich) was used as an internal standard for standardization of the expression levels.
# The siRNA-treated NHEK cells were seeded into a 6-well plate and cultured for 24 hours. The medium was then discarded, PBS was exchanged, and irradiation was carried out with ultraviolet rays (290 to 315 nm) at a radiation intensity of 15 mJ/cm^2. Following ultraviolet irradiation, the medium was again exchanged and culturing was continued for 48 hours to obtain a culture supernatant. The IL-1β concentration of the obtained culture supernatant was evaluated using a Quantikine Human IL-1β ELISA Kit (R&D co.) (FIGS. 3A, B and C). Student's t-test was used as the statistical significance test.
# [3] = test system: Atg5; assay: siRNA knockdown efficiency by RT-PCR, Atg5; type: cell-based, human; settings: siRNA 200 nM in NHEK cells, GAPDH internal standard
# Protocol: as §1
# [4] = test system: Atg7; assay: siRNA knockdown efficiency by RT-PCR, Atg7; type: cell-based, human; settings: siRNA 200 nM in NHEK cells, GAPDH internal standard
# Protocol: as §1
# [5] = test system: Beclin1; assay: siRNA knockdown efficiency by RT-PCR, Beclin1; type: cell-based, human; settings: siRNA 200 nM in NHEK cells, GAPDH internal standard
# Protocol: as §1
Molecule,"IL-1β concentration after ultraviolet irradiation, increase [1]",IL-1β production induced by ultraviolet ray [2],Atg5 expression (mRNA) [3],Atg7 expression (mRNA) [4],Beclin1 expression (mRNA) [5]
Cn1cnc(N)c2ncnc1-2 [3-methyladenine],approximately 3 fold,–,–,–,–
"Atg5-targeted siRNA: siRNA for Atg5 purchased from Invitrogen, SEQ ID NO: 1 and 2 (chain 1 GGUUUGGACGAAUUCCAACUUGUUU; chain 2 AAACAAGUUGGAAUUCGUCCAAACC; listed as RNA, chemistry not given here)",–,unchanged,suppressed,–,–
"Atg7-targeted siRNA: siRNA for Atg7 purchased from Invitrogen, SEQ ID NO: 3 and 4 (chain 1 GCCGUCAUUGCUGCAAGCAAGAGAA; chain 2 UUCUCUUGCUUGCAGCAAUGACGGC; listed as RNA, chemistry not given here)",–,unchanged,–,suppressed,–
"Beclin1-targeted siRNA: siRNA for Beclin1 purchased from Invitrogen, SEQ ID NO: 5 and 6 (chain 1 CCAAUAAGAUGGGUCUGAAAUUUCA; chain 2 UGAAAUUUCAGACCCAUCUUAUUGG; listed as RNA, chemistry not given here)",–,significantly increased,–,–,suppressed
